We go through 2 molecules from patent publication US6680025B2, “Device and method for photoactivation” (Cerus Corporation, priority 1989, dated 2004).

One assay deals with tRNA. Put plainly: Photobinding of BIOMIP to tRNA, biotin detection (BluGene). The format is binding. The conditions noted are these: 100 μg/ml, irradiated 30 minutes CE-III; no signal from unirradiated controls. How it is done:
This example describes photobinding of ^3H-AMIP, ^3H-AMDMIP and BIOMIP to RNA. A tRNA stock was prepared at a concentration of 765 μg/ml in 1×TE/10 mM NaCl. Appropriate amounts of each compound were prepared in separate reaction vessels such that upon addition of 200 μl of the tRNA solution (153 μg) the final concentration of each compound was 100 μg/ml. […] were used in the experiment; the BIOMIP used was unlabelled. Each reaction vessel was then irradiated for 30 minutes at 25° C. in the CE-III device. Identical unirradiated reaction mixtures were used as controls for each compound. Following irradiation, each mixture was extracted with CHCl3 (4×200 μl ) then precipitated (×2). The pellets were resuspended in 1×TE and the binding levels determined as follows. For the two labelled compounds (^3H-AMDMIP and ^3H-AMIP), the nucleic acid concentration was determined optically and radioactivity measured by scintillation counting of aliquots of the stock solutions. Binding of the compounds was then calculated to be as follows:
To determine if binding of BIOMIP to tRNA has occurred, it was necessary to use a non-radioactive format which detected the biotin moiety on the compound. A commercial kit (“BluGene”; BRL) was used for this purpose. The kit instructions were followed for detection of both the control DNA (supplied with the kit) and BIOMIP treated tRNA. […]

Assay [1] concerns PCR product (primer pair SK-38/39 analogs). Put plainly: Post-amplification sterilization with AMT. The settings on record: AMT 100 μg/ml, irradiated CE-III; 10^4 to 10^10 copies carried over; 30 cycles. Type of assay: biochemical. Here is the method: A PCR sample is prepared for amplification with the following changes. Instead of AMDMIP, AMT is added prior to amplification at a concentration of 100 μg/ml. Instead of primer pair SK-38/39, the biotinylated analogs, in which biotin has been appended to the 5′ end of one or both primers via an intervening tetraethylenglycol bridge (ester linkage to the biotin), are used. Following 30 cycles of PCR, the reaction vessel is exposed to 300-400 nm light on the CE-III device. Following irradiation, the PCR reaction vessel is opened and the PCR product removed. Free primer is then removed by spinning the PCR reaction mix through a Centricon 100 (Amicon Division, W R Grace & Co., Danvers, Mass.). […] After immobilization, the PCR product is detected with a commercially available biotin detection systems (BluGene Detection System; catalog #8179 SA; BRL). […]
PCR reagents are added and the samples reamplified for 30 cycles, and α-^32P-dCTP is present during the amplification. Following PCR, the reamplified samples are analyzed by denaturing PAGE as described above.
In a third method, a solution of AMT (100 μg/ml) is prepared and irradiated for 15 minutes on the CE-III device. […] The mix is then amplified for 30 cycles in the presence of α-^32P-dCTP, then analyzed by PAGE, as above. […]

Regarding “5-N-(N,N′-Dimethyl-(6-{biotinamido}-hexanoate)-1,6-hexanediamine])-methyl-isopsoralen [BIOMIP]”, the “binding to tRNA by biotin detection” value in the assay on tRNA is “covalently bound to the tRNA”.

As to `Cc1oc2c(C)c3oc(=O)cc(C)c3cc2c1CN` [AMT, 4′-aminomethyl-4,5′,8-trimethylpsoralen], the “reamplification of treated PCR product” value in assay [1] is on record as “does not reamplify”.
